# Source: patent KR20070023630A, “티로신 키나제 억제제로서의 퀴나졸린 유도체” (아스트라제네카 아베, priority 2003, dated 2005)
# Tested on: erbB2 phosphorylation in MCF7-derived cell line (MCF7 유래의 세포주에서 erbB2의 인산화)
# Assay: Test (c): clone 24 phospho-erbB2 cell assay
# Type: cell-based
# Settings: Homo sapiens, clone 24 cells (MCF7-derived, overexpressing full-length erbB2), read-out: IC50 test (c): inhibition of erbB2 tyrosine kinase protein phosphorylation
row,IC50 [nM],SMILES
1,210,"CN(C)CC(=O)N1CCC(Oc2ccc3ncnc(Nc4ccc(OCc5ccccn5)c(Cl)c4)c3c2)CC1 [실시예 8, N-[3-클로로-4-(피리딘-2-일메톡시)페닐]-6-({1-[(디메틸아미노)아세틸]피페리딘-4-일}옥시)퀴나졸린-4-아민]"
2,4,"CS(=O)(=O)N1CCC(COc2ccc3ncnc(Nc4ccc(OCc5ccccn5)c(Cl)c4)c3c2)C1 (stereo not drawn) [실시예 14, N-[3-클로로-4-(피리딘-2-일메톡시)페닐]-6-{[1-(메틸술포닐)피롤리딘-3-일]메톡시}퀴나졸린-4-아민]"
3,150,"CN(C)CC(=O)N1CCC(Oc2ccc3ncnc(Nc4ccc(OCc5cnccn5)c(Cl)c4)c3c2)CC1 [실시예 9, N-[3-클로로-4-(피라진-2-일메톡시)페닐]-6-({1-[(디메틸아미노)아세틸]피페리딘-4-일}옥시)퀴나졸린-4-아민]"
